In patent US20240216369A1, “THE USE OF A SPLICING MODULATOR FOR A TREATMENT SLOWING PROGRESSION OF HUNTINGTON'S DISEASE” (Novartis AG, priority 2019, published 2024):
Where “and” joins values, the source holds several entries; their conditions need not be identical. Equal values may be shown once. Entries after “also recorded” stand apart in the source; their conditions may differ.

What was measured:
[1] = GastroPlus ACAT/PBPK physico-chemical and formulation input parameters; settings: for controlled-release dissolution profile, release: fitted to plasma profile
Excerpt: The pharmacokinetic (PK) model in adult subjects was developed using an Advanced Compartmental And Transit (ACAT)/Physiologically Based Pharmacokinetic (PBPK) model in GastroPlus™ software, Version 9.6 (SimulationPlus, Lancaster, CA, USA).
• Principle set-up of a pediatric ACAT/PBPK model in GastroPlus™ software including physico-chemical parameters, physiological parameters, and formulation factors. The ACAT model was linked to a full PBPK model in which tissue-to-plasma concentration ratios were estimated via in silico method provided by GastroPlus™ software. • Estimation of the clearance (CL) using plasma concentrations of branaplam from an open-label multi-part first-in-human proof of concept study of oral branaplam, Part 1 only. The aim of Part 1 of this study was to determine the safety and tolerability of ascending weekly doses and to estimate the maximum tolerated dose (MTD) of oral/enteral branaplam (formulation described in Example 3) in infants with Type 1 SMA. All patients had exactly 2 copies of the SMN2 gene. Patients were dosed once weekly with branaplam. The branaplam doses were escalated in subsequent cohorts until MTD was determined or when PK results confirmed that the MTD could not be reached due to a potential pharmacokinetic exposure plateau at higher doses. The starting dose referring to the free base was 6 mg/m^2 (equal to 0.3125 mg/kg). Subsequent doses were 12 mg/m^2, 24 mg/m^2, 48 mg/m^2 and 60 mg/m^2 (0.625 mg/kg, 1.25 mg/kg, 2.5 mg/kg and 3.125 mg/kg, respectively). 14 patients were enrolled in Part 1; 13 patients were exposed to branaplam. The duration of exposure ranged from 4-33 months, 7 patients remain in the study. Six of the 7 patients are receiving 60 mg/m^2, 1 patient is receiving 48 mg/m^2.
The in vivo solubility parameter for branaplam was newly assessed to consider the impact of the solubilizer cyclodextrin (CD), which is present in the currently used formulation (Example 3), on the solubility of branaplam. […]

total HTT transcript = assay: Repeat oral dosing in BacHD mice: total HTT transcript in blood; assay type: in vivo; settings: 12 or 24 mg/kg oral, thrice weekly for three weeks; listed as branaplam
Procedure: For the repeat dosing study, twenty-four BacHD mice (FVB/N-Tg(HTT*97Q)IXwy/J transgenic mice—Jackson Laboratories) were used for the experiment. Animal protocols were approved by the Children's Hospital of Philadelphia Institutional Animal Care and use Committee. Mice were housed in a temperature-controlled environment on a 12-h light/dark cycle. Food and water were provided ad libitum.
For the repeat dosing study, branaplam or vehicle was administered by oral gavage 3 times a week for 3 consecutive weeks. Mice were divided in 4 groups (n=6 mice/group) and treated with branaplam (12 mg/kg—1 group, or 24 mg/kg—2 groups), or vehicle (1 groups) as control. […] The amount of branaplam or vehicle administrated to each mouse was based on the weight recorded the day of dosing. […]
RNA from blood was extracted using PAXgene blood RNA kit (Qiagen) according to manufacturer protocol. The RNA was quantified by Nanodrop 2000 (Thermo Scientific). cDNAs were synthesized from 140-400 ng RNA using Maxima First strand cDNA synthesis kit using a mix of oligo dT and random hexamers (Thermo Scientific) in 20 uL reaction at 25° C. for 10 min, 50° C. for 15 min then 85° C. for 5 min. Quantitative PCR was performed using Taqman Fast Advanced master mix (Thermo Scientific) in 20 uL with 4 uL of cDNA reaction and primers specific for each genes. […]

## CC1(C)CC(Oc2ccc(-c3ccc(-c4cn[nH]c4)cc3O)nn2)CC(C)(C)N1 [Compound 18, 5-(1H-pyrazol-4-yl)-2-(6-((2,2,6,6-tetramethylpiperidin-4-yl)oxy)pyridazin-3-yl)phenol]
[1]; at 0.25 h
  controlled-release dissolution profile, release: 2%
[1]; at 1 h
  controlled-release dissolution profile, release: 5%
[1]; pH 6.8, optimized with GastroPlus on observed concentration-time data (cyclodextrin formulation), listed as branaplam
  Solubility: 0.088 at pH 6.8 (Optimized value using GastroPlus ™ software mg/mL and 0.088 at pH 6.8 (Optimized value using GastroPlus ™ based mg/mL
Total HTT transcript
  total HTT transcript in blood: robust lowering; also recorded: lowers
